Test results taken from patent US20160271086A1, “METHODS AND COMPOSITIONS FOR INDUCING REGULATORY T-CELL GENERATION” (SLOAN-KETTERING INSTITUTE FOR CANCER RESEARCH, priority 2013, published 2016).

Key:
LPS response genes = test: Gene expression in DC (microarray, Relb qPCR); format: cell-based, mouse; conditions: 6 h
Protocol: FIG. 4 depicts HDAC-inhibitory activity of butyrate decreases pro-inflammatory cytokine expression within DC to promote Treg induction: A) Histone acetylation in Flt3L-elicited DC from B6 mice treated with the indicated SCFA (500 μM) or TSA (10 nM) for 6 h followed by acid extraction of histones from isolated nuclei, SDS-PAGE and blotting with antibody for pan-acetylated H3. Total histone H3 served as a loading control; B) Induction of Foxp3 expression upon stimulation of naïve CD4+ T cells by CD3 antibody in the presence of SCFA or TSA, Flt3L-elicited DC and TGF-β; C) RelB gene expression quantified by qPCR in purified Flt3L-elicited DC from B6 mice treated for 6 h with SCFA or TSA, as in (A); and D) RelB gene expression quantified by qPCR in purified Flt3L-elicited DC from B6 mice treated with or without TSA in combination with, or in the absence of, butyrate at the indicated concentrations.
The data are shown as percent of CD4+ cells expressing Foxp3 after 4 days of culture. Data are representative of 2 independent experiments; error bars denote SEM.

dendritic cells = test: Treg induction by dendritic cells treated with soluble or liposome encapsulated TSA; format: cell-based; conditions: DC treated 6 hrs with soluble or liposome encapsulated TSA, washed, incubated with naïve CD4+ T cells
Source text: TSA was encapsulated in lipid particles containing mixtures of lipids for release of contents only upon entry into cells. For details see Karve et al. Langmuir 2008, 24, 5679-5688. To monitor incorporation of TSA into liposomes, lipids were dissociated with hydrogenated Triton-X and monitored for increased UV absorption compared to free TSA and ‘empty’ liposomes. >85% of free TSA is incorporated into the lipid particles.
The ability of dendritic cells to induce Treg development in vitro after exposure to lipopsome encapsulated TSA was evaluated. Doubly bead-purified dendritic cells were treated for 6 hrs with soluble or liposome encapsulated TSA then washed and incubated with naïve CD4+ T cells. Pretreatment of DCs with TSA increased the generation of Foxp3+ cells relative to vehicle control (FIG. 11).

Flt3L-elicited DC = test: Foxp3 induction by DC pre-treated with SCFA or TSA for 6 h, washed, co-cultured with naïve CD4+ T cells; format: cell-based, mouse; conditions: DC pre-treated 6 h, then agent removed
Protocol: DC were expanded in vivo by subcutaneous injection of B16 melanoma cells secreting FLT3-ligand into the left hind flank of mice as indicated. Once tumors were visible, spleens from injected animals were dissociated in RPMI 1640 medium containing 1.67 U mL-1 liberase TL (Roche) and 50 μg mL-1 DNAse I (Roche) for 20 min at 37° C. with shaking EDTA was then added at a final concentration of 5 mM to stop digestion and the resulting homogenate was processed for CD11c+ cell isolation using the MACS mouse CD11c (N418) purification kit (Miltenyi Biotec).
In vitro Foxp3 induction assays were performed by co-culturing DC with 5.5×10^4 CD4+CD44loCD62LhiCD25-naïve T cells in the presence of 1 μg ml-1 of CD3 antibody, 1 ng mL-1 TGF-β, and 100 U ml-1 IL-2, in 96-well flat-bottom plates for 4 d. For Foxp3 induction in the presence of butyrate- or TSA-pretreated DC, TGF-β was used at 0.1 ng mL-1 final concentration. In vitro induction assays in the absence of DC were performed by incubating 5.5×10^4 naïve CD4+ T cells with 1 ng mL-1 TGF-β, 100 U ml-1 IL-2, and a 1:1 cell-to-bead ratio of CD3/CD28 T activator Dynabeads (Invitrogen). For in vitro suppression assays, 4×10^4 naïve CD4+ T cells were FACS-sorted from B6 mice and cultured with graded numbers of CD4+Foxp3+ Treg cells FACS-sorted from Foxp3GFP mice treated with antibiotics and with or without butyrate, in the presence of […] irradiated T cell-depleted splenocytes and 1 μg ml-1 CD3 antibody in a 96-well round-bottom plate for 80 h. Proliferation of T cells was assessed by [3H]-thymidine incorporation during the final 8 h of culture.

T cells = conditions: Wang et al. 2009; Tao et al. 2007; cited from earlier work

CC(/C=C/C(=O)NO)=C\[C@@H](C)C(=O)c1ccc(N(C)C)cc1 [TSA, trichostatin A]
expression of LPS response genes including 1112, 116, and Relb in DCs (LPS response genes): systemic repression
generation of Foxp3+ cells relative to vehicle control (dendritic cells): increased
ability of pre-treated DCs to induce Foxp3 expression in naïve CD4+ T cells (Flt3L-elicited DC): potently induced
Treg cell generation in vitro by acting on T cells (T cells): potentiates
